Measured values published in patent US9102684B2, “Indolinone analogues” (Boehringer Ingelheim International GmbH, priority 2013, dated 2015).
pIC50: −log10 of the molar value.

Target: T1, BRD4 (Homo sapiens, UniProt O60885)
T1 construct: fused on or other part: GST tag, fused on for capture by the AlphaLISA Glutathione Acceptor Beads
Assay: BRD4-H4 tetraacetylated Peptide Inhibition AlphaScreen
Assay type: binding
Settings: GST-BRD4-BD1 (aa 44-168) or GST-BRD4-BD2 (aa 333-460) with biotinylated Acetyl-Histone H4 peptide; table does not state which bromodomain
Procedure: Biological Methods BRD4-H4 tetraacetylated Peptide Inhibition AlphaScreen
Compounds are diluted in serial dilution 1:5 in assay buffer from 10 mM stock in DMSO (100 μM start concentration) in white OptiPlate-384 (PerkinElmer). A mix consisting of 15 nM GST-BRD4-BD1 protein (aa 44-168) or 150 nM GST-BRD4-BD2 (aa 333-460) and 15 nM biotinylated Acetyl-Histone H4 (LysS, 8, 12, 16) peptide is prepared in assay buffer (50 mM HEPES pH=7.4; 25 mM NaCl; 0.05% Tween 20; 0.1% bovine serum albumin (BSA); 10 mM dithiothreitol (DTT)). 6 μl of the mix is added to the compound dilutions. Subsequently, 6 μl of premixed AlphaLISA Glutathione Acceptor Beads and AlphaScreen Streptavidin Donor Beads from PerkinElmer (in assay buffer at a concentration of 10 μg/ml each) are added and the samples are incubated for 30 min at RT in the dark (shaking 300 rpm). Afterwards, the signal is measured in a PerkinElmer Envision HTS
Multilabel Reader using the AlphaScreen protocol from PerkinElmer. Each plate contains negative controls where biotinylated Acetyl-Histone H4 peptide and GST-BRD4-BD1 or GST-BRD4-BD2 are left out and replaced by assay buffer. Negative control values are entered as low basis value when using the software GraphPad Prism for calculations. Furthermore, a positive control (probe molecule JQ1+ with protein/peptide mix) is pipetted. Determination of IC50 values are carried out using GraphPad Prism 3.03 software (or updates thereof).

Row | pIC50 | SMILES
1 | 7.24 | Cc1noc(C)c1-c1ccc2c(c1)C(c1ccccc1)N(C1CCN(C)CC1)C2=O (centres unmarked) [Example 2, 5-(3,5-Dimethyl-isoxazol-4-yl)-2-(1-methyl-piperidin-4-yl)-3-phenyl-2,3-dihydro-isoindol-1-one]
2 | 7.37 | Cc1noc(C)c1-c1ccc2c(c1)C(c1ccccc1)N(CCCN(C)C)C2=O (centres unmarked) [Example 3, 2-(3-Dimethylamino-propyl)-5-(3,5-dimethyl-isoxazol-4-yl)-3-phenyl-2,3-dihydro-isoindol-1-one]
3 | 7.19 | Cc1noc(C)c1-c1ccc2c(c1)C(c1ccccc1)N(CCN(C)C)C2=O (centres unmarked) [Example 4, 2-(2-Dimethylamino-ethyl)-5-(3,5-dimethyl-isoxazol-4-yl)-3-phenyl-2,3-dihydro-isoindol-1-one]
4 | 7.26 | Cc1noc(C)c1-c1ccc2c(c1)C(c1ccccc1)N(C)C2=O (centres unmarked) [Example 8, 5-(3,5-Dimethyl-isoxazol-4-yl)-2-methyl-3-phenyl-2,3-dihydro-isoindol-1-one]
5 | 7.85 | Cc1noc(C)c1-c1ccc2c(c1)[C@H](c1ccccc1)N(C)C2=O [Example 9, (S)-5-(3,5-Dimethyl-isoxazol-4-yl)-2-methyl-3-phenyl-2,3-dihydro-isoindol-1-one]
6 | 7.42 | Cc1noc(C)c1-c1ccc2c(c1)C(C)(c1ccccc1)N(C)C2=O (centres unmarked) [Example 10, 5-(3,5-Dimethyl-isoxazol-4-yl)-2,3-dimethyl-3-phenyl-2,3-dihydro-isoindol-1-one]
7 | 5.60 | Cc1cc(-c2c(C)noc2C)cc2c1C(=O)N(C)C2c1ccccc1 (centres unmarked) [Example 11, 5-(3,5-Dimethyl-isoxazol-4-yl)-2,7-dimethyl-3-phenyl-2,3-dihydro-isoindol-1-one]
8 | 7.12 | Cc1noc(C)c1-c1ccc2c(c1)C(c1ccccc1)N(C(C)C)C2=O (centres unmarked) [Example 12, 5-(3,5-Dimethyl-isoxazol-4-yl)-2-isopropyl-3-phenyl-2,3-dihydro-isoindol-1-one]
9 | 6.71 | Cc1noc(C)c1-c1ccc2c(c1)C(c1ccccc1)OC2=O (centres unmarked) [Example 13, 5-(3,5-Dimethyl-isoxazol-4-yl)-3-phenyl-3H-isobenzofuran-1-one]
10 | 7.14 | Cc1noc(C)c1-c1ccc2c(c1)C1(c3ccccc3)OCCN1C2=O (centres unmarked) [Example 14, 8-(3,5-Dimethyl-isoxazol-4-yl)-9b-phenyl-2,3-dihydro-9bH-oxazolo[2,3-a]isoindol-5-one]
11 | 7.44 | Cc1noc(C)c1-c1ccc2c(c1)C1(c3ccccc3)OCCCN1C2=O (centres unmarked) [Example 15, 9-(3,5-Dimethyl-isoxazol-4-yl)-10b-phenyl-3,4-dihydro-2H,10bH-[1,3]oxazino[2,3-a]isoindol-6-one]
12 | 7.27 | Cc1noc(C)c1-c1ccc2c(c1)C(C)(c1ccccc1)C(=O)N2 (centres unmarked) [Example 18, 5-(3,5-Dimethyl-isoxazol-4-yl)-3-methyl-3-phenyl-1,3-dihydro-indol-2-one]
13 | 6.56 | Cc1noc(C)c1-c1ccc2c(c1)C(C)(c1ccccc1)C(=O)N2C (centres unmarked) [Example 19, 5-(3,5-Dimethyl-isoxazol-4-yl)-1,3-dimethyl-3-phenyl-1,3-dihydro-indol-2-one]
14 | 6.62 | Cc1noc(C)c1-c1ccc2c(c1)C(C)(c1ccccc1)C(=O)N2c1cccnc1 (centres unmarked) [Example 20, 5-(3,5-Dimethyl-isoxazol-4-yl)-3-methyl-3-phenyl-1-pyridin-3-yl-1,3-dihydro-indol-2-one]

The remaining lines, values behind:

Row | SMILES | pIC50
15 | COc1cc(F)cc(C2c3cc(-c4c(C)noc4C)ccc3C(=O)N2C)c1 (centres unmarked) [Example 1, 5-(3,5-Dimethyl-isoxazol-4-yl)-3-(3-fluoro-5-methoxy-phenyl)-2-methyl-2,3-dihydro-isoindol-1-one] | 6.42
16 | Cc1noc(C)c1-c1ccc2c(c1)C(c1cc(F)cc(F)c1)N(C)C2=O (centres unmarked) [Example 5, 3-(3,5-Difluoro-phenyl)-5-(3,5-dimethyl-isoxazol-4-yl)-2-methyl-2,3-dihydro-isoindol-1-one] | 6.64
17 | Cc1noc(C)c1-c1ccc2c(c1)C(C1CCCCC1)N(C)C2=O (centres unmarked) [Example 6, 3-Cyclohexyl-5-(3,5-dimethyl-isoxazol-4-yl)-2-methyl-2,3-dihydro-isoindol-1-one] | 7.37
18 | Cc1noc(C)c1-c1ccc2c(c1)C(C1CCC3(CCC3)CC1)N(C)C2=O (centres unmarked) [Example 7, 5-(3,5-Dimethyl-isoxazol-4-yl)-2-methyl-3-spiro[3.5]non-7-yl-2,3-dihydro-isoindol-1-one] | 5.96
19 | COc1c(-c2c(C)noc2C)ccc2c1C(c1ccccc1)OC2=O (centres unmarked) [Example 16, 5-(3,5-Dimethyl-isoxazol-4-yl)-4-methoxy-3-phenyl-3,1-isobenzofuran-1-one] | 6.46
20 | Cc1noc(C)c1-c1ccc2c(c1C)C(c1ccccc1)OC2=O (centres unmarked) [Example 17, 5-(3,5-Dimethyl-isoxazol-4-yl)-4-methyl-3-phenyl-3H-isobenzofuran-1-one] | 5.97
21 | Cc1noc(C)c1-c1ccc2c(c1)C(O)(c1ccccc1)C(=O)N2 (centres unmarked) [Example 21, 5-(3,5-Dimethyl-isoxazol-4-yl)-3-hydroxy-3-phenyl-1,3-dihydro-indol-2-one] | 6.59
22 | Cc1noc(C)c1-c1ccc2c(c1)[C@](O)(c1ccccc1)C(=O)N2 [Example 22, 5-(3,5-Dimethyl-isoxazol-4-yl)-3-hydroxy-3-phenyl-1,3-dihydro-indol-2-one] | 7.32
23 | Cc1noc(C)c1-c1ccc2c(c1)C(O)(c1ccccc1CN1CCOCC1)C(=O)N2 (centres unmarked) [Example 23, 5-(3,5-Dimethyl-isoxazol-4-yl)-3-hydroxy-3-(2-morpholin-4-ylmethyl-phenyl)-1,3-dihydro-indol-2-one] | 6.75
24 | Cc1noc(C)c1-c1ccc2c(c1)[C@](O)(c1ccccc1CN1CCOCC1)C(=O)N2 [Example 24, 5-(3,5-Dimethyl-isoxazol-4-yl)-3-hydroxy-3-(2-morpholin-4-ylmethyl-phenyl)-1,3-dihydro-indol-2-one] | 7.39
25 | Cc1noc(C)c1-c1ccc2c(c1)C(O)(c1ccc(Cl)cc1)C(=O)N2 (centres unmarked) [Example 25, 3-(4-Chloro-phenyl)-5-(3,5-dimethyl-isoxazol-4-yl)-3-hydroxy-1,3-dihydro-indol-2-one] | 6.53
26 | Cc1noc(C)c1-c1ccc2c(c1)C(O)(c1cccs1)C(=O)N2 (centres unmarked) [Example 26, 5-(3,5-Dimethyl-isoxazol-4-yl)-3-hydroxy-3-thiophen-2-yl-1,3-dihydro-indol-2-one] | 6.49
27 | Cc1noc(C)c1-c1ccc2c(c1)C(O)(C1CCCC1)C(=O)N2 (centres unmarked) [Example 27, 3-Cyclopentyl-5-(3,5-dimethyl-isoxazol-4-yl)-3-hydroxy-1,3-dihydro-indol-2-one] | 6.16
28 | Cc1noc(C)c1-c1ccc2c(c1)C(O)(c1ccc(F)c(F)c1)C(=O)N2 (centres unmarked) [Example 28, 3-(3,4-Difluoro-phenyl)-5-(3,5-dimethyl-isoxazol-4-yl)-3-hydroxy-1,3-dihydro-indol-2-one] | 6.69
29 | Cc1noc(C)c1-c1ccc2c(c1)C(O)(c1ccc3c(c1)OCO3)C(=O)N2 (centres unmarked) [Example 29, 3-Benzo[1,3]dioxol-5-yl-5-(3,5-dimethyl-isoxazol-4-yl)-3-hydroxy-1,3-dihydro-indol-2-one] | 6.27
30 | Cc1noc(C)c1-c1ccc2c(c1)C(O)(C1CCCCC1)C(=O)N2 (centres unmarked) [Example 30, 3-cyclohexyl-5-(3,5-dimethyl-isoxazol-4-yl)-3-hydroxy-1,3-dihydro-indol-2-one] | 6.71
31 | Cc1noc(C)c1-c1ccc2c(c1)C(O)(c1cccnc1)C(=O)N2 (centres unmarked) [Example 31, 5-(3,5-Dimethyl-isoxazol-4-yl)-3-hydroxy-3-pyridin-3-yl-1,3-dihydro-indol-2-one] | 6.40
32 | Cc1noc(C)c1-c1ccc2c(c1)C(O)(c1ccccn1)C(=O)N2 (centres unmarked) [Example 32, 5-(3,5-Dimethyl-isoxazol-4-yl)-3-hydroxy-3-pyridin-2-yl-1,3-dihydro-indol-2-one] | 6.48
33 | Cc1ccccc1C1(O)C(=O)Nc2ccc(-c3c(C)noc3C)cc21 (centres unmarked) [Example 33, 5-(3,5-Dimethyl-isoxazol-4-yl)-3-hydroxy-3-o-tolyl-1,3-dihydro-indol-2-one] | 5.97
34 | Cc1noc(C)c1-c1ccc2c(c1)C(O)(C1CCOCC1)C(=O)N2 (centres unmarked) [Example 34, 5-(3,5-Dimethyl-isoxazol-4-yl)-3-hydroxy-3-(tetrahydro-pyran-4-yl)-1,3-dihydro-indol-2-one] | 5.80
35 | Cc1cncc(C2(O)C(=O)Nc3ccc(-c4c(C)noc4C)cc32)c1 (centres unmarked) [Example 35, 5-(3,5-Dimethyl-isoxazol-4-yl)-3-hydroxy-3-(5-methyl-pyridin-3-yl)-1,3-dihydro-indol-2-one] | 5.98
